The values that follow come from patent EP0006061A1, “Medicinal compound consisting of a derivative of cyclopentyl aldehyde” (INSTITUT DE RECHERCHES CHIMIQUES ET BIOLOGIQUES APPLIQUEES …, priority 1978, dated 1979).

Assay [1] concerns rat femelle. Briefly: anti-inflammatory activity, carrageenin oedema test. It is filed as in vivo. Particulars: dose 200 µg per rat. The text has this: L'activité anti-inflammatoire de l'exemple 4 a été étudiée chez le rat femelle (de poids 100 g) selon le test de l'oedème à la carragéenine.Les résultats sont donnés dans le tableau IV où l'Indométacine est utilisée comme produit de référence : […]

Assay [2] concerns Proteus. Briefly: bacteriostatic activity (MIC). Particulars: read-out: CMI (concentration minimale inhibitrice). The assay is classed as cell-based. On the procedure:
(§1) Les essais pharmaceutiques qui ont été mis en oeuvre avec les produits des exemples 1 et 4, ont été résumés ci-après : • 1°/ essais avec l'exemple 1 • a/ activité bactériostatique L' α-(2-formyl-3-méthyl-cyclopentyl)-acétal- déhyde inhibe les bactéries Gram (+) et Gram (-). Les CMI (concentration minimale inhibitrice) sont les suivantes : 0,75 mg/ml sur Staphylococcus aureus Londres, 1,2 mg/ml sur Escherichia coli, et 1,5 mg/ml sur Proteus • b/ activité antispasmodique : Les DE-50 du produit de l'exemple 1 ont été déterminés • (i) in vitro sur iléon isolé de cobaye vis à vis de l'histamine : DE - 50 = 50 γ/ml; • (ii) in vivo sur l'animal vivant selon la méthode de KONZETT & ROESLLER : DE - 50 = 2,6 mg/kg par administration i.v. • c/ activité antianaphylactique : Des cobayes mâles sont sensibilisés par deux injections de 0,5 ml d'une solution d'albumine à 2 g/1, à deux jours d'intervalle. Quatre semaines aprës,le choc anaphylactique mortel est provoqué par injection i.v. de 0,2 ml d'une solution aqueuse d'ovalbumine à 2 g/1. Les produits à tester sont administrés 30 mn avant (administration i.p.) ou en même temps (administration i.v.) que l'injection provoquant ledit choc anaphylactique. Les résultats sont donnés dans le tableau I pour le produit de l'exemple 1 et la Prométhazine en tant que produit de référence : [formula] • 2°/ essais avec le produit de l'exemple 4 (constitué par un mélange de 87 % en poids d'isomère "cis-trans" et 13 % en poids d'isomère "trans-cis). • a/ activité bactériostatigue : Le produit de l'exemple 4 inhibe les bactéries Gram (+) et Gram (-). Ses CMI sont les suivantes : • 1,5 mg/m sur Staphylococcus aureus, Londres • 1 mg/ml sur Escherichia coli (souche 548) • 1,75 mg/ml sur Proteus vulgaris (souche 1557) • 2,5 mg/ml sur Klebsiella pneumoniae (souche 433), • 1 mg/ml sur Salmonella typhi murium (souche IP), • 1,5 mg/ml sur Staphylococcus aureus (souche 634), • 1,25 mg/ml sur Streptococcus (souche 1178) • 1,25 mg/ml sur Bacillus substilis, (les souches 548, 1557, 433, 634, et 1178 étant celles du catalogue de la collection du "Centre International de Distribution de Souches et d'Information sur les Types Microbiens" de . Lausanne, et la souche "IP" provenant de l'Institut Pasteur de Paris. • b/ activité bactéricide Le produit de l'exemple 4 détruit les bactéries Gram (+) et Gram (-). Ses CMB (concentration minimalebactéricide) déterminées sur milieu solide (quand moins de 0,01% de germes survivent) sont : • 1,75 mg/ml sur Staphylococcus aureus Londres • 1,5 mg/ml sur Escherichia coli (souche 548) • 2 mg/ml sur Proteus vulgaris (souche 1557) • 3 mg/ml sur Klebsiella pneumoniae (souche 433), • 1,25 mg/ml sur Salmonella typhi murium (souche I.P.) • 1,75 mg/ml sur Staphylococcus aureus (souche 634) • 2 mg/ml sur Streptococcus (souche 1178) • 2,5 mg/ml sur Bacillus substilis. • c/ activité bronchospatique Des cobayes mâles ou femelles [20 animaux (pesant 300-500 g) par dose et par produit à tester] sont exposés à un aérosol de l'exemple 4 (50 g/l en solution eau-éthanol) ou de Prométhazine (produit de référence) pendant 10 mn.

For assay [3], the system named is Staphylococcus aureus Londres. Briefly: bacteriostatic activity (MIC). To be noted: read-out: CMI (concentration minimale inhibitrice). The assay is classed as cell-based. The protocol:
as §1

Assay [4] deals with Escherichia coli. Briefly: bacteriostatic activity (MIC). It is filed as cell-based. To be noted: read-out: CMI (concentration minimale inhibitrice). The protocol:
as §1

Assay [5] has as its system l'animal vivant. Briefly: antispasmodic activity in vivo, method of KONZETT & ROESLLER
Particulars: iv, i.v. administration, read-out: DE - 50 (the source's name). On the procedure:
(§2) Les essais pharmaceutiques qui ont été mis en oeuvre avec les produits des exemples 1 et 4, ont été résumés ci-après : • 1°/ essais avec l'exemple 1 • a/ activité bactériostatique L' α-(2-formyl-3-méthyl-cyclopentyl)-acétal- déhyde inhibe les bactéries Gram (+) et Gram (-). Les CMI (concentration minimale inhibitrice) sont les suivantes : 0,75 mg/ml sur Staphylococcus aureus Londres, 1,2 mg/ml sur Escherichia coli, et 1,5 mg/ml sur Proteus • b/ activité antispasmodique : Les DE-50 du produit de l'exemple 1 ont été déterminés • (i) in vitro sur iléon isolé de cobaye vis à vis de l'histamine : DE - 50 = 50 γ/ml; • (ii) in vivo sur l'animal vivant selon la méthode de KONZETT & ROESLLER : DE - 50 = 2,6 mg/kg par administration i.v. • c/ activité antianaphylactique : Des cobayes mâles sont sensibilisés par deux injections de 0,5 ml d'une solution d'albumine à 2 g/1, à deux jours d'intervalle. Quatre semaines aprës,le choc anaphylactique mortel est provoqué par injection i.v. de 0,2 ml d'une solution aqueuse d'ovalbumine à 2 g/1. Les produits à tester sont administrés 30 mn avant (administration i.p.) ou en même temps (administration i.v.) que l'injection provoquant ledit choc anaphylactique. […]

Assay [6] relates to iléon isolé de cobaye. Briefly: antispasmodic activity in vitro against histamine on isolated ileum. The assay is classed as cell-based. Particulars: isolated guinea pig ileum, read-out: DE - 50 (the source's name). On the procedure: as §2

The structures appear in SMILES notation. In brackets after ≈: the same amount, converted by molar mass.

Take `COc1ccc2c(c1)c(CC(=O)O)c(C)n2C(=O)c1ccc(Cl)cc1` [Indometacine, reference compound]: the “inhibition par rapport aux témoins” value in assay [1] is recorded as 57%.
For `CC1CCC(CC=O)C1C=O` (stereo not drawn) [Ex. 1, α-(2-formyl-3-méthyl-cyclopentyl)-acétaldéhyde], the MIC came to 1500 µg/mL (≈ 9.73 mM) in assay [2], 750 µg/mL (≈ 4.86 mM) in assay [3] and 1200 µg/mL (≈ 7.78 mM) in assay [4]. The ED50 in assay [5] was 2.6 mg/kg. In assay [6], the EC50 stood at 50 µg/mL (≈ 0.324 mM).
